As usually defined, the AC50 is the midpoint of the concentration-response curve, whichever way the signal moves.

The assay concerns the target Zinc finger protein mex-5 (Caenorhabditis elegans) (UniProt Q9XUB2). The assay can be described thus: MEX-5 zinc finger-RNA interaction blockers – biochemical, fluorescence polarization, C. elegans, cherry-picked, round 3, dose response (AID 493250). Conditions: purified MEX-5-MBP, FITC-TCR2 RNA fluorescence polarization; for activity change, negative = inhibition: at 10 µM (top of the series).

Activity calls are given as the source filed them.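 How the source made its calls: active means signal decrease with fitted half-maximal dose at or below ten times the highest valid tested dose; inconclusive means poor fit, or flat fit at 30 to 70% inhibition; inactive means the rest.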

Zinc finger protein mex-5 (Caenorhabditis elegans), sequence (Q9XUB2 whole entry, looked up): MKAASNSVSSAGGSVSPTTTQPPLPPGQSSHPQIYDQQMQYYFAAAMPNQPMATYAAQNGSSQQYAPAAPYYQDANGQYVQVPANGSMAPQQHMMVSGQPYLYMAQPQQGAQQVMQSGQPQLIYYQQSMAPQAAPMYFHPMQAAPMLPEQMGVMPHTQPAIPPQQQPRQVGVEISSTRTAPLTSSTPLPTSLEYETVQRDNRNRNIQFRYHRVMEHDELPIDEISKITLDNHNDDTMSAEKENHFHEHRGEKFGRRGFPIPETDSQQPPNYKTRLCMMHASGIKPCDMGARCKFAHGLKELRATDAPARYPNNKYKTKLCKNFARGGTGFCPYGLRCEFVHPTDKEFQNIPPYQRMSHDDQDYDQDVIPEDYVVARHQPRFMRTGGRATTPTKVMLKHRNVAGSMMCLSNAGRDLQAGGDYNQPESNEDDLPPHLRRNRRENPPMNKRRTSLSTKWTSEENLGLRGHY

As for `COc1ccc(C2c3sc(=O)[nH]c3SCC2C(N)=O)cc1` (centres undefined), the “activity change, negative = inhibition” value is “inactive”.
In the case of `O=C1N=c2ccccc2=C1c1sc(=S)n(NC(=O)c2ccccc2)c1O`, the “activity change, negative = inhibition” value was “inactive”.
With `NC(=O)c1cccc2cc3ccccc3cc12`, the “activity change, negative = inhibition” value is “inactive”.
Take `NC(=O)C(=O)N/N=C1\CCc2ccccc21`: the “activity change, negative = inhibition” value is “inactive”.
On the same count and under the same terms, to `O=S(=O)(O)c1nc2ccccc2n1Cc1ccc(Cl)cc1Cl` belongs “inactive”; to `O=C(NNC(=O)c1ccco1)c1csc(N2CCOCC2)n1`, “inactive”.
The same measure, in the same setting: to `O=c1oc2cc([N+](=O)[O-])ccc2nc1/C=C(\O)c1cccc(Br)c1` belongs “inactive”; to `Cc1ccc(N/N=C(\C#N)C(=O)c2ccsc2)cc1`, “inactive”; to `CCOc1ccc2nc(N=Nc3c(O)[nH]c(=O)[nH]c3=O)sc2c1`, “inactive”.
As for `COCCNC(=S)NNC(=O)c1cccs1`, the “activity change, negative = inhibition” value is “inactive”.
Take `O=C1c2cccc3cccc(c23)C(=O)N1Cc1ccccc1`: the “activity change, negative = inhibition” value is “inactive”.
Still for that read-out and setting: under `CC(=O)c1cc(NC(=O)c2ccc([N+](=O)[O-])cc2)c(=O)oc1C` stands “inactive”.
Same read-out and setting: under `CC1=Nc2ccccc2/C1=C\c1nc(-c2ccccc2)oc1O` stands “inactive”; under `O=C(O)c1ccccc1N=Nc1c(O)[nH]c2ccc([N+](=O)[O-])cc12`, “inactive”; under `Cn1cc(CNC(=O)C2c3ccccc3Oc3ccccc32)cn1`, “inactive”.
On the same count and under the same terms, to `CN1/C(=C\C=C(/C#N)C(=O)Nc2ccccc2F)C(C)(C)c2ccccc21` belongs “inactive”; to `COc1ccc(CC(=O)NNc2ncnc3c2cnn3C)cc1OC`, “inactive”; to `COc1ccc(CCNc2c3ccccc3nc3ccccc23)cc1OC`, “inactive”.
For the compound `CCCn1c(=N)c(C(=O)NC2CCCC2)cc2c(=O)n3cccc(C)c3nc21`, the “activity change, negative = inhibition” value was “inactive”.
Take `CNC(=O)c1c(NC(=O)c2nc3ccccc3s2)sc2c1CCC2`: the “activity change, negative = inhibition” value was “inactive”.
On the same count and under the same terms, under `CC1CN2C(c3ccc([N+](=O)[O-])cc3)=CSC2=N1` (centres undefined) stands “inactive”.
In the case of `CCOCCCn1c(=N)c(S(=O)(=O)c2ccccc2)cc2c(=O)n3cc(C)ccc3nc21`, the AC50 is 10.3 µM.
Consider `CCN(CC(=O)Nc1ccc(NC(C)=O)cc1)Cc1c(O)ccc2cc(Br)ccc12`, for which the “activity change, negative = inhibition” value was “inactive”.
In the case of `CCN1C(=O)c2cccc3c(NC(=O)C4CCCCC4)ccc1c23`, the AC50 is 6.96 µM.
Turning to `Cc1c(O)ccc(-c2[nH]ncc2-c2nc3ccccc3s2)c1O`, the “activity change, negative = inhibition” value was “inactive”.
For `O=C(O)Cn1c(O)c(C2=c3ccccc3=NC2=O)sc1=O`, the “activity change, negative = inhibition” value is “inactive”.
Still for that read-out and setting: under `Cc1ccc2c(c1)c(C1=NC(=S)NC1=O)c(O)n2C` stands “inactive”; under `CCc1ccc(S(=O)(=O)Nc2ccc(O)c3c(=O)cc(-c4ccccc4Cl)oc23)cc1`, “inactive”; under `Cc1ccc(-c2cc(C(=O)Nc3ccc(S(=O)(=O)Nc4ncccn4)cc3)[nH]n2)c(O)c1C`, “inactive”.
With `CNC(=O)c1cc2ccc(OC)cc2oc1=O`, the AC50 was > 10 µM (inactive).
With `Cc1cccc(N2C(=O)NC(=O)/C(=C/c3cc4c(cc3[N+](=O)[O-])OCO4)C2=O)c1`, the AC50 is 9.86 µM.
Consider `Nc1ccc2oc(-c3ccccc3Cl)cc(=O)c2c1O`, for which the “activity change, negative = inhibition” value was “inactive”.
The same measure, in the same setting: to `COC(=O)c1cccc(-c2ccc(C(c3c(C)[nH][nH]c3=O)c3c(C)[nH][nH]c3=O)o2)c1` belongs “inactive”.
The same measure, in the same setting: under `N#C/C(C(N)=O)=C1/CCc2ccccc2N1` stands “inactive”; under `Cc1csc(NC(=O)c2ccc(-c3ccc(Cl)cc3Cl)o2)n1`, “inactive”.
`CCc1ccc(S(=O)(=O)/N=C2\C=C(Nc3ccc(C(=O)O)cc3)C(=O)c3ccccc32)cc1`: the “activity change, negative = inhibition” value is “inactive”.
In the case of `O=C(N/N=C/c1cccnc1)c1ccccc1`, the “activity change, negative = inhibition” value was “inactive”.
As for `O=C(Nc1cccnc1)c1cccs1`, the “activity change, negative = inhibition” value was “inactive”.
Regarding `COc1ccc(/C=N/NC(=O)c2ccc(=O)[nH]n2)cc1OC`, the “activity change, negative = inhibition” value is “inactive”.
Same read-out and setting: under `CC(C)(C)CC(C)(C)NCC(O)COc1ccc2c(c1)CCC2` (centres undefined) stands “inactive”.
For `CCCOc1cc(N(CC)CC)ccc1/C=C(/C#N)c1nc2ccc(C)cc2[nH]1`, the AC50 was 6.33 µM.
For `COC(=O)c1ccc(CC(=O)c2c(C)cc(O)cc2O)o1`, the “activity change, negative = inhibition” value is “inactive”.
The same measure, in the same setting: under `O=C(NNC(=O)c1ccccc1Cl)c1csc(N2CCOCC2)n1` stands “inactive”; under `NS(=O)(=O)c1ccc(N=Nc2ccc(=O)[nH]c2O)cc1`, “inactive”; under `CC(=O)CCS(=O)(=O)c1ccc(Oc2ccc(S(=O)(=O)CCC(C)=O)cc2)cc1`, “inactive”.
On the same count and under the same terms, under `CCCCn1c(N)c(N(CCOC)C(=O)c2ccc(Br)o2)c(=O)[nH]c1=O` stands “inactive”.
The same measure, in the same setting: to `COc1ccc(NC(=O)/C=C/c2cccc(C(F)(F)F)c2)cn1` belongs “inactive”; to `O=C(O)c1cccc(NC(=S)N/N=C/c2c[nH]c3ccccc23)c1`, “inactive”.
As for `COc1ccc(-n2c(O)c(/C=N/NS(=O)(=O)c3cc(C)ccc3C)c3ccccc3c2=O)cc1OC`, the AC50 was 1.32 µM.
With `COc1ccc(/C=N/Nc2nc(=O)[nH]nc2C)cc1[N+](=O)[O-]`, the “activity change, negative = inhibition” value was “inactive”.
With `COc1ccc(CCn2c(=N)c(C(=O)NCC3CCCO3)cc3c(=O)n4ccccc4nc32)cc1` (centres undefined), the “activity change, negative = inhibition” value is “inactive”.
Same read-out and setting: to `CC1=CC2=NC(=O)/C(=C\c3ccc(-c4cccc(Cl)c4)o3)C(=N)N2O1` belongs “inactive”.
Turning to `COc1ccccc1/C=C/C=C1\Oc2c(ccc(O)c2CN(C)C)C1=O`, the AC50 was 2.28 µM.
For `Cc1ccc(NC(=O)CCC(=O)NNC(=S)Nc2ccc(F)cc2)c(C)c1`, the “activity change, negative = inhibition” value is “inactive”.
For `COC(=O)c1cc(NC(=O)c2ccccc2)c(=O)oc1C`, the “activity change, negative = inhibition” value was “inactive”.
Same read-out and setting: to `O=C(N/N=C/c1ccncc1)c1cc([N+](=O)[O-])cc([N+](=O)[O-])c1O` belongs “inactive”; to `O=c1c(OC2OC(CO)C(O)C(O)C2O)c(-c2ccc(O)c(O)c2)oc2cc(O)cc(O)c12` (centres undefined), “inactive”.
For the compound `Cc1cccc(C)c1NC(=O)/C(C#N)=C/c1cccs1`, the “activity change, negative = inhibition” value is “inactive”.
`CCOc1cc(/C=N/n2c(C)nc3ccccc3c2=O)ccc1O`: the “activity change, negative = inhibition” value is “inactive”.
On the same count and under the same terms, to `O=C(O)c1ccc2cccnc2n1` belongs “inactive”; to `CN1CN(C)c2ccc([N+](=O)[O-])c3cccc1c23`, “inactive”; to `Nc1ccc([N+](=O)[O-])cc1C(=O)NNC(=O)c1ccco1`, “inactive”.
Regarding `Cc1ccc(O)c(-c2cc(C(=O)Nc3ccc(S(=O)(=O)Nc4nc(C)cc(C)n4)cc3)[nH]n2)c1`, the “activity change, negative = inhibition” value was “inactive”.
The same measure, in the same setting: to `Cc1c(NC(=O)c2ccc(=O)oc2)c(=O)n(-c2ccccc2)n1C` belongs “inactive”.
With `O=C1C(Cl)=C(NC2CCCCC2)C(=O)N1c1ccc(Cl)cc1`, the AC50 was > 10 µM (inactive).
Regarding `Nc1c(C(=O)Nc2cccc(Cl)c2Cl)sc2nc(-c3cccnc3)ccc12`, the “activity change, negative = inhibition” value is “inactive”.
Same read-out and setting: to `COc1ccccc1N1C(=O)C2C(C(=O)c3ccccc3)=NN(c3ccccc3OC)C2C1=O` (centres undefined) belongs “inactive”; to `CN1C(=O)NC(c2ccccc2Cl)C2=C1CC(C)(C)CC2=O` (centres undefined), “inactive”; to `O=C(N/N=C/c1cccnc1)c1ccc(O)cc1`, “inactive”.
Turning to `COc1cc(/C=N/NC(=O)c2ccc(=O)[nH]n2)ccc1O`, the “activity change, negative = inhibition” value was “inactive”.
`COc1ccccc1N1C(=O)S/C(=C\c2cccs2)C1=O`: the “activity change, negative = inhibition” value was “inactive”.
Still for that read-out and setting: to `COc1ccc(N(CCC#N)C(=O)/C(C#N)=C/c2cccs2)cc1` belongs “inactive”; to `Nc1cc(C(=O)O)c(Oc2ccc(Cl)cc2Cl)cc1C(=O)O`, “inactive”; to `COc1ccc(NC(=O)c2cccs2)cn1`, “inactive”.
In the case of `COc1c(OC2OC(C(=O)O)C(O)C(O)C2O)cc(O)c2c(=O)cc(-c3ccccc3)oc12` (centres undefined), the “activity change, negative = inhibition” value was “inactive”.
The same measure, in the same setting: under `O=C1N=c2ccccc2=C1c1sc(=S)n(NC(=O)c2cccc(O)c2)c1O` stands “inactive”; under `COc1nc(N/N=C/c2ccc(-c3ccccc3[N+](=O)[O-])o2)nc(N2CCOCC2)n1`, “inactive”.
Still for that read-out and setting: under `Cc1c(Cl)cccc1NC(=O)C(=O)NNS(=O)(=O)c1ccc(F)cc1` stands “inactive”; under `N=C(N)N=Nc1c(O)[nH]c2ccc(Br)cc12`, “inactive”.
As to `Cc1ccc(C(=O)N/C(=C\c2ccc(-c3ccc(Cl)cc3)o2)C(=O)NCCCN(C)C)cc1`, the “activity change, negative = inhibition” value was “inactive”.
Still for that read-out and setting: under `CCc1nnc2c(N(C)C)nc3ccccc3n12` stands “inactive”.
Turning to `CCN(CC)c1ccc(/C=C(/C#N)c2nc3ccc(C)cc3[nH]2)c(OC(C)C)c1`, the half-maximal activity concentration (AC50) is 1.16 µM.
Take `COc1ccccc1C(=O)NNC(=O)c1csc(N2CCOCC2)n1`: the “activity change, negative = inhibition” value was “inactive”.
Consider `O=C(N/N=C/c1c(O)ccc2ccccc12)c1ccc[n+](CCO)c1`, for which the “activity change, negative = inhibition” value was “inactive”.

The record behind these values is PubChem BioAssay AID493250 (Broad Institute, 2011).
